Reference: publication PMC4116524, “A virtual screen identified C96 as a novel inhibitor of phosphatidylinositol 3-kinase that displays potent preclinical activity against multiple myeloma in vitro and in vivo” (Oncotarget, 2014)

Columns and labels:
MM cell [1] = tested on: MM cell; set-up: method as in PMID 24013662; conditions: cited from earlier work
PI3Kγ and δ = tested on: PI3Kγ and δ; set-up: method as in PMID 20505158; conditions: read-out: IC50s in inhibiting PI3K activity; cited from earlier work
MM cell [2] = tested on: MM cell; set-up: method as in PMID 20505158; conditions: cited from earlier work
[3] = tested on: AKT phosphorylation in LP1 and JJN3 cells; assay: IGF-1-stimulated AKT phosphorylation, immunoblotting (Figure 3A); assay type: cell-based; conditions: 100 μM, 2 hrs, IGF-1 15 min
Protocol: To elucidate this specificity, we first evaluated its effects on IGF-1R because IGF-1R as a receptor tyrosine kinase activates PI3K in the presence of IGF-1. To exclude the potential effects of C96 on IGF-1 signaling, LP1 and JJN3 cells were starved overnight followed by C96 or S14161 treatment for 2 hrs, and IGF-1 stimulation for 15 min. As expected, IGF-1 triggered AKT phosphorylation but it was suppressed by both C96 and the proven PI3K inhibitor S14161 without affecting total AKT expression (Figure 3A). […] Next, we evaluated other kinases including non-receptor kinase c-Src and a PI3K parallel kinase ERK which transduces external cellular signals. Both LP1 and JJN3 cells were treated with C96 at increasing concentrations that inhibited AKT and mTOR activation (Figure 2C).
Figure 3 C96 inhibits AKT but not IGF-1R, ERK or c-Src kinase activation (A) LP1 and JJN3 cells were starved overnight, then treated with 100 (μM of C96 or S14161 for 2 hrs, followed by IGF-1 (100 ng/mL) for 15 min. After incubation, cells were harvested and the expression of p-AKT, p-IGF-1R, total AKT (T-AKT), and IGF-1R proteins were detected by immunoblotting. (B) LP1 and JJN3 were treated with C96 at indicated concentrations for 24 hrs followed by immunoblotting assay for the expression of p-Src, c-Src, p-ERK, and ERK. GAPDH was used as a loading control. […]

SMILES: COc1c(OCCCN2CCOCC2)ccc2c1N=C(NC(=O)c1cnc(N)nc1)N1CCN=C21 [BAY80-6946]
- concentration required to inhibit MM cell proliferation (MM cell [1]): more than 1000 nM

SMILES: CC[C@H](Nc1ncnc2[nH]cnc12)c1nc2cccc(F)c2c(=O)n1-c1ccccc1 [CAL-101]
- IC50 (PI3Kγ and δ): ~2.5 nM
- concentration needed to induce MM cell death (MM cell [2]): more than 10 μM

SMILES: CCOc1cccc2c1OC(c1ccc(F)cc1)C([N+](=O)[O-])=C2 (stereo not shown) [S14161, reference compound]
- AKT phosphorylation triggered by IGF-1 [3]: suppressed
